This note sets out measurements from patent US20050192279A1, “Pyridazinones as antagonists of alpha4 integrins” (priority 2004, published 2005).

Like-named read-outs stand apart in the source and are kept apart here. Some results are limits rather than exact numbers.

The target in experiment [1] is T1, α4β1 (Homo sapiens, UniProt P05556+P13612).
T1 construct: Ramos Cell Adhesion Assay (α4β1 Mediated Adhesion/VCAM-1); endogenous in cells; host or cells: Ramos cells
As to the kind of experiment: Ramos Cell Adhesion Assay (α4β1 Mediated Adhesion/VCAM-1). Format: cell-based. The essentials: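 Plates coated overnight at 4° C with recombinant hVCAM-1 at 4.0 μg/mL, pH 9.0, then blocked in PBS/1% BSA. Calcein AM-labeled Ramos cells added with compounds and left to adhere 1 h at room temperature; after washing, cells lysed in 1 M Tris pH 8.0/1% SDS.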

The target of experiment [2] is T2, human α4β7 integrin (Homo sapiens, UniProt P13612+P26010).
T2 construct: expressed in transfected cells; host or cells: K562 cells, stably transfected
T2 sequence (P13612 34-1032): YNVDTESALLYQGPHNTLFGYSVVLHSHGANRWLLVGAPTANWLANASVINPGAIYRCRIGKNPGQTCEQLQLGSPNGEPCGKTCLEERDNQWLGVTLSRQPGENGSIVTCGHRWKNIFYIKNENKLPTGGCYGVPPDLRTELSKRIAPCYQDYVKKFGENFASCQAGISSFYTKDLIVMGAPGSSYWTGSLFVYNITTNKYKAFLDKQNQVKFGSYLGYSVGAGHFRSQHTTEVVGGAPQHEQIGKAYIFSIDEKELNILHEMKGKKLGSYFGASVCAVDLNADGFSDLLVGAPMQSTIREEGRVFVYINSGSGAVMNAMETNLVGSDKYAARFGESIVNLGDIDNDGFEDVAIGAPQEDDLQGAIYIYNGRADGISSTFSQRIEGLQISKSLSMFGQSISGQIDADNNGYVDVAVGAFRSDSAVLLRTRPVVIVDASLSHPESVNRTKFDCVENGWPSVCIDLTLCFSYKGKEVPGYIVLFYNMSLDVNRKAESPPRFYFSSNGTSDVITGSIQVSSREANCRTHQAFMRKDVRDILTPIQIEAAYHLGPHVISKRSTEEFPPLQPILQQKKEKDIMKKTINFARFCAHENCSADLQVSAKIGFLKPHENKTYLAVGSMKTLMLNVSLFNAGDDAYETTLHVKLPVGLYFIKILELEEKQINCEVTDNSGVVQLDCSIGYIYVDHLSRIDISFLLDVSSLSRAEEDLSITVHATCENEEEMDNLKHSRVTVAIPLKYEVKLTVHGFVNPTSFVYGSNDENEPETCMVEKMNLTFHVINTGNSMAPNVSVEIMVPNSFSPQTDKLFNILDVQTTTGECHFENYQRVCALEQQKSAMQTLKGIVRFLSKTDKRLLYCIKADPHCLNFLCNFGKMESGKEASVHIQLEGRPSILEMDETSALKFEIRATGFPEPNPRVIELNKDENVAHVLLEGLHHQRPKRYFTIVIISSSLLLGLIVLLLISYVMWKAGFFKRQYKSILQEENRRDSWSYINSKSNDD
T2 sequence (P26010 20-798): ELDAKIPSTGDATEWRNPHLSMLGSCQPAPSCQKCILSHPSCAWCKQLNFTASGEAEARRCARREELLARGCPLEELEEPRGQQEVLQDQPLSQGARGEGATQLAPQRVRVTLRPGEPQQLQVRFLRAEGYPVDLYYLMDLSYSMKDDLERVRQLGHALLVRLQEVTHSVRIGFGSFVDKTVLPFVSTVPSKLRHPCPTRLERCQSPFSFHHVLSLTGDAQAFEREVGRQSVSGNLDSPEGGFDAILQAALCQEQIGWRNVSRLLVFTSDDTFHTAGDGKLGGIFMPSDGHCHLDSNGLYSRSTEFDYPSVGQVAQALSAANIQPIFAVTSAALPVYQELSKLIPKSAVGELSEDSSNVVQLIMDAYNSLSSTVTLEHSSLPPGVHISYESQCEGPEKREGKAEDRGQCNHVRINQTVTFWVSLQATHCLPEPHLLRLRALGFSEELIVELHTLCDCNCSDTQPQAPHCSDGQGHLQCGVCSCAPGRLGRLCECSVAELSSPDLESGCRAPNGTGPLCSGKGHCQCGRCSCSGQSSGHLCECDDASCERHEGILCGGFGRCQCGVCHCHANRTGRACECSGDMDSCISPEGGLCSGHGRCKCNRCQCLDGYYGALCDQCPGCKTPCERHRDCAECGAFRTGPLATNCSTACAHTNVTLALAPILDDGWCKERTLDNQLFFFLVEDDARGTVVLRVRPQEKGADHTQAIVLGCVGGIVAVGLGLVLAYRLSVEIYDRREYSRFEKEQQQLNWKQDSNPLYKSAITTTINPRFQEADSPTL
Put plainly: α4β7-K562 Cell Adhesion Assay (α4β7 Mediated Adhesion/MAdCAM-1). Format: cell-based. The essentials: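 Anti-FLAG plates coated 1 h at 4° C with FLAG-hMAdCAM-1 in PBS pH 7.4, 1% BSA, 1 mM Mn2+. Stably transfected K562 cells expressing human α4β7, labelled with CFDA-SE, adhered with compound 1 h at room temperature. After four washes, bound cells lysed in 0.1 M NaOH for fluorescence read-out.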

Setting [3] is: Ramos cell adhesion to hVCAM-1, read-out: α4β1 IC50.
Setting [4] is: α4β7-K562 cell adhesion to hMAdCAM-1, read-out: α4β7 IC50.

T1 sequence (P05556 21-798, one chain of several): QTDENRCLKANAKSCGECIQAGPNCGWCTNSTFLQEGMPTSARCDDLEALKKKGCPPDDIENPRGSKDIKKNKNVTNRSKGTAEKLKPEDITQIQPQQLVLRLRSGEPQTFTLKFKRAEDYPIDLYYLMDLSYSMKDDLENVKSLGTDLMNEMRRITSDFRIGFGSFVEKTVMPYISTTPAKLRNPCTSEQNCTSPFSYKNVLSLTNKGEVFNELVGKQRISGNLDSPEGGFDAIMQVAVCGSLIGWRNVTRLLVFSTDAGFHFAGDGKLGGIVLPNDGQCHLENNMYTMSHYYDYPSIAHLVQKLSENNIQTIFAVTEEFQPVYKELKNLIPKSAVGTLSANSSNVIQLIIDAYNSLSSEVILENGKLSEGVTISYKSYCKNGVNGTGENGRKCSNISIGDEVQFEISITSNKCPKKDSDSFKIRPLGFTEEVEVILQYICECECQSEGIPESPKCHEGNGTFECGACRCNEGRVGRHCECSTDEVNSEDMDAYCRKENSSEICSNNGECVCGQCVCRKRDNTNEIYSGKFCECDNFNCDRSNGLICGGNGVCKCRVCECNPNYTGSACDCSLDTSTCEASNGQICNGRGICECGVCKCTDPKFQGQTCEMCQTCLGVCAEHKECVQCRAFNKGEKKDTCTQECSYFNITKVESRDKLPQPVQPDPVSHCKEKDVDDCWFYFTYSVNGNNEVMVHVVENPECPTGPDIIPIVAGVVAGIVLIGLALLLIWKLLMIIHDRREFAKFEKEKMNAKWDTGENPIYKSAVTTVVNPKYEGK

As to `CN(C)c1cnn(C(C)(C)C)c(=O)c1-c1ccc(C[C@H](NC(=O)c2c(Cl)cccc2Cl)C(=O)O)cc1` [Cpd 155], the IC50 in experiment [1] (setting [3]) was more than 1000 nM; in experiment [2] (setting [4]), 332 nM.
The corresponding values for `CNc1cnn(C)c(=O)c1-c1ccc(C[C@H](NC(=O)c2c(Cl)cccc2Cl)C(=O)O)cc1` [Cpd 156] are more than 5000 nM and 339 nM.
The corresponding values for `COc1cnn(C)c(=O)c1-c1ccc(C[C@H](NC(=O)CN(C)C(=O)OC(C)(C)C)C(=O)O)cc1` [Cpd 157] are more than 5000 nM and 353 nM.
For the compound `COc1cnn(C)c(=O)c1-c1ccc(C[C@H](NC(=O)C(N)C(C)C)C(=O)O)cc1` (some centres unmarked) [Cpd 159], the concentration for half-maximal inhibition (IC50) in experiment [1] (setting [3]) is more than 5000 nM; in experiment [2] (setting [4]), 363 nM.
Take `CC(C)(C)n1ncc(-n2cncn2)c(-c2ccc(C[C@H](NC(=O)c3c(Cl)cccc3Cl)C(=O)O)cc2)c1=O` [Cpd 160]: the values for the IC50 in experiment [1] (setting [3]) and in experiment [2] (setting [4]) were 611 nM and 364 nM, respectively.
`Cn1ncc(NCCCl)c(-c2ccc(C[C@H](NC(=O)c3c(Cl)cccc3Cl)C(=O)O)cc2)c1=O` [Cpd 162]: the IC50 in experiment [1] (α4β1 IC50, Ramos cell adhesion to hVCAM-1) is more than 5000 nM; in experiment [2] (α4β7 IC50, α4β7-K562 cell adhesion to hMAdCAM-1), 408 nM.
Consider `COc1cnn(C)c(=O)c1-c1ccc(C[C@H](NC(=O)c2cc(=O)[nH]c(=O)[nH]2)C(=O)O)cc1` [Cpd 163], for which the IC50 in experiment [1] (setting [3]) is more than 5000 nM; in experiment [2] (setting [4]) it was 429 nM.
In the case of `COc1cnn(C)c(=O)c1-c1ccc(C[C@H](NC(=O)C2CCN(C(=O)OCc3ccccc3)CC2)C(=O)O)cc1` [Cpd 164], the IC50 in experiment [1] (setting [3]) is more than 5000 nM; in experiment [2] (setting [4]), 457 nM.
For `COc1cnn(CCN2CCOCC2)c(=O)c1-c1ccc(C[C@H](NC(=O)[C@H](NC(=O)OC(C)(C)C)[C@H](C)O)C(=O)O)cc1` [Cpd 167], the IC50 in experiment [1] (setting [3]) was more than 5000 nM; in experiment [2] (setting [4]), 480 nM.
In the case of `O=C(N[C@@H](Cc1ccc(-c2c(O)cn[nH]c2=O)cc1)C(=O)O)c1c(Cl)cccc1Cl` [Cpd 168], the concentration for half-maximal inhibition (IC50) in experiment [1] (setting [3]) is more than 1000 nM; in experiment [2] (setting [4]), 490 nM.
For the compound `COc1cnn(C)c(=O)c1-c1ccc(C[C@H](NC(=O)c2ccc(CO)cc2)C(=O)O)cc1` [Cpd 170], the IC50 in experiment [1] (setting [3]) stood at 2810 nM; in experiment [2] (setting [4]), 514 nM.
Turning to `COc1cnn(C)c(=O)c1-c1ccc(C[C@H](NC(=O)OCC(C)(C)C)C(=O)O)cc1` [Cpd 171], the IC50 in experiment [1] (setting [3]) was more than 5000 nM; in experiment [2] (setting [4]) it was 536 nM.
For `COc1cnn(C)c(=O)c1-c1ccc(C[C@H](NC(=O)OCc2ccccc2)C(=O)O)cc1` [Cpd 172, (S)-2-Benzyloxycarbonylamino-3-[4-(5-methoxy-2-methyl-3-oxo-2,3-dihydro-pyridazin-4-yl)-phenyl]-propionic acid] the same measures were more than 5000 nM and 570 nM.
As for `COc1cnn(C)c(=O)c1-c1ccc(C[C@H](NC(=O)CN(C)C)C(=O)O)cc1` [Cpd 173], the IC50 in experiment [1] (setting [3]) was more than 5000 nM; in experiment [2] (setting [4]), 575 nM.
In the case of `COc1cnn(C)c(=O)c1-c1ccc(C[C@H](NC(=O)OCC(C)C)C(=O)O)cc1` [Cpd 175], the IC50 was more than 5000 nM in experiment [1] (setting [3]) and 591 nM in experiment [2] (setting [4]).
For `COc1cnn(C)c(=O)c1-c1ccc(C[C@H](NC(=O)C2(NC(=O)OC(C)(C)C)CC2)C(=O)O)cc1` [Cpd 177] the same measures were more than 5000 nM and 163 nM.
The corresponding values for `COc1cnn(CCN2CCOCC2)c(=O)c1-c1ccc(C[C@H](NC(=O)[C@H](NC(C)C)C(C)C)C(=O)O)cc1` [Cpd 179] are more than 5000 nM and 721 nM.
For `COc1cnn(C)c(=O)c1-c1ccc(C[C@H](NC(=O)OC23CC4CC(CC(C4)C2)C3)C(=O)O)cc1` [Cpd 180] the same measures were more than 5000 nM and 731 nM.
Regarding `COc1cnn(C)c(=O)c1-c1ccc(CC(NC(=O)C(N)C(C)C)C(=O)O)cc1` (centres unmarked) [Cpd 181, 2-(2-Amino-3-methyl-butyrylamino)-3-[4-(5-methoxy-2-methyl-3-oxo-2,3-dihydro-pyridazin-4-yl)-phenyl]-propionic acid], the IC50 in experiment [1] (setting [3]) is more than 5000 nM; in experiment [2] (setting [4]) it was 750 nM.
